Columns and labels:
Bean Leaf Beetle = test: Field trial, contact poison test; assay type: in vivo
Method in brief: (§1)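 Infested host plants were kept in water-filled bottles with cellucotton around the stem and sprayed with different compound concentrations by atomizer at 10 psi from arm's length. Mortality was read at 24, 48 and 72 h on a 0–9 scale (0 = 0-10%, 9 = 91-100% mortality), averaged per concentration.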

[1] = tested on: Red-Legged Grasshopper Adults; test: Field trial, contact poison test; assay type: in vivo
Method in brief: as §1

[2] = tested on: Southern Corn Rootworm Adults; test: Field trial, contact poison test; assay type: in vivo
Method in brief: as §1

[3] = tested on: Striped Cucumber Beetle Adults; test: Field trial, stomach poison test; assay type: in vivo; set-up: key: mortality rating on a 0 to 9 scale
Method in brief: (§2)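 Treated foliage (dipped, or sprayed at 10 psi, then dried) is offered to counted insects in dishes. Scoring of mortality uses a 0–9 scale at three time points up to 72 h.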

[4] = tested on: Southern Corn Rootworm Adults; test: Field trial, stomach poison test; assay type: in vivo; set-up: key: mortality rating on a 0 to 9 scale
Method in brief: as §2

Milkweed Bug = Milkweed Bug Test; assay type: in vivo, Oncopeltis fasciatus (Hemiptera); settings: 48 h
Method in brief: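 Ten chilled adult milkweed bugs per cage sprayed with 5 ml test formulation at 10 psi, then fed and watered. Mortality, counting moribund as dead, scored 48 h after spraying; 500 ppm malathion as reference, unsprayed cages as controls.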

Meadow Spittlebug = test: Field trial, stomach poison test; assay type: in vivo
Method in brief: as §2

Aphids - Apple = test: Field trial, stomach poison test; assay type: in vivo
Method in brief: as §2

Aphids - Sour Gum = test: Field trial, stomach poison test; assay type: in vivo
Method in brief: as §2

Milkweed Beetle = test: Field trial (first summer), contact; assay type: in vivo; settings: 125 ppm
Picnic Beetle [5] = test: Field trial (first summer), contact; assay type: in vivo; settings: 250 ppm
Boll Weevil = Boll Weevil Test; assay type: in vivo, Anthonomus grandis (Coleoptera); settings: 25 ppm, 48 h
Description: The procedure is identical to that employed for the Mexican bean beetle and the Southern armyworm, except that 10 adult boll weevils are placed on cotton leaves that have been dipped into formulations of the test compounds. The same rating scale is used.

Picnic Beetle [6] = test: Field trial (first summer), stomach; assay type: in vivo; settings: 250 ppm
Experimental: Leaves from the infested plant are treated with different concentrations of the test compounds, either by spraying with a DeVilbiss Special Atomizer (5004) at 10 psi or by dipping the leaves in solutions containing the compound. The leaves are then allowed to air dry.
After the leaves have dryed, they are placed in plastic petri dishes (100 × 25 mm), then the insects are counted out into each dish, five or ten insects per dish depending on the number of insects available. There are one or two replicates and usually two or three rates with each compound. Mortality results are taken at 24, 48 and 72 hours. The rating scale is 0 to 9.
During the previous summer similar field trials were conducted employing the same tests as heretofore but with some additional species of insects not included in the later tests. The results listed below are for tests in which an insect mortality was established by a given application route and at a given concentration in a particular test. The same 0 - 9 scoring system is used as is the designation of compounds by alphabetical symbols.

House Fly = test: Housefly (Contact) Test; assay type: in vivo, Musca domestica (Diptera); settings: 24 h
Confused Flour Beetle = test: Field trial (first summer), topical; assay type: in vivo; settings: .3125 μg/μl
Method in brief: (§3)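 Field trial from the first summer in which 1 µl of test solution holding a set number of micrograms of benzimidazole was applied topically to larvae or adult insects. Mortality at a given route and concentration was scored on a 0–9 scale.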

Picnic Beetle [7] = test: Field trial (first summer), topical; assay type: in vivo; settings: .078125 μg/μl
Method in brief: as §3

`CCCCCCOC(=O)n1c(C(F)(F)F)nc2c([N+](=O)[O-])cc(C(F)(F)F)cc21` [E, n-hexyl 2,6-bis(trifluoromethyl)-4-nitro-1-benzimidazolecarboxylate] was tested, and the average mortality rating (Bean Leaf Beetle; 25 ppm) was 0 (0-10 percent), the average mortality rating (Bean Leaf Beetle; 50 ppm) was 0 (0-10 percent) and the average mortality rating (Bean Leaf Beetle; 100 ppm) was 8. The average mortality rating ([1]; 10 ppm) was 3, the average mortality rating ([1]; 25 ppm) was 8 and the average mortality rating ([1]; 50 ppm) was 7. For the same molecule, the average mortality rating ([2]; 25 ppm) was 4, the average mortality rating ([2]; 50 ppm) was 9 (91-100 percent mortality) and the average mortality rating ([2]; 100 ppm) was 8. For the same molecule, the average mortality rating ([3]; 10 ppm) was 3, the average mortality rating ([3]; 25 ppm) was 1 and the average mortality rating ([3]; 50 ppm) was 5. It also gave an average mortality rating ([3]; 100 ppm) of 5, an average mortality rating ([4]; 25 ppm) of 5 and an average mortality rating ([4]; 50 ppm) of 5. For the same molecule, the average mortality rating ([4]; 100 ppm) was 5, the mortality rating (Milkweed Bug; 10 ppm) was “.5” and the mortality rating (Milkweed Bug; 25 ppm) was 6.5. The mortality rating (Milkweed Bug; 50 ppm) was 1.5, the average mortality rating (Meadow Spittlebug; 10 ppm) was 1 and the average mortality rating (Meadow Spittlebug; 25 ppm) was 2. For the same molecule, the average mortality rating (Meadow Spittlebug; 50 ppm) was 3, the average mortality rating (Meadow Spittlebug; 100 ppm) was 1 and the average mortality rating (Aphids - Apple; 25 ppm) was 5. For the same molecule, the average mortality rating (Aphids - Apple; 50 ppm) was 5, the average mortality rating (Aphids - Apple; 100 ppm) was 7 and the average mortality rating (Aphids - Sour Gum; 25 ppm) was 1. The average mortality rating (Aphids - Sour Gum; 50 ppm) was 3, the average mortality rating (Aphids - Sour Gum; 100 ppm) was 5 and the insect mortality rating (Milkweed Beetle) was 9 (91-100 percent mortality). The insect mortality rating (Picnic Beetle [5]) was 9 (91-100 percent mortality), the mortality rating (Boll Weevil) was 6.5 and the insect mortality rating (Picnic Beetle [6]) was 9 (91-100 percent mortality). For the same molecule, the mortality rating (House Fly; 10 ppm) was 4.5, the mortality rating (House Fly; 50 ppm) was 1.5 and the insect mortality rating (Confused Flour Beetle) was 9 (91-100 percent mortality). For the same molecule, the insect mortality rating (Picnic Beetle [7]) was 9 (91-100 percent mortality).

— patent publication US4122184A, “Benzimidazole insecticides” (priority 1977, dated 1978)
